Measured values: PubChem BioAssay (NCI)
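Growth conditions: 96-well plates. Treatment: test compound, 48 hours, 5 concentrations. Analysis: linear interpolation between bracketing concentrations; unreached endpoints set to highest concentration. TGI marks complete inhibition of growth.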

Tests used:
Experiment in all cases: NCI-60 cell line screen, 48 h
[1] = system: SN12C renal
[2] = system: MALME-3M melanoma
[3] = system: CCRF-CEM leukemia
[4] = system: HL-60(TB) leukemia
[5] = system: SK-MEL-2 melanoma
[6] = system: NCI/ADR-RES ovarian
[7] = system: SF-539 CNS
[8] = system: TK-10 renal
[9] = system: HCT-116 colon
[10] = system: NCI-H23 lung
[11] = system: M14 melanoma
[12] = system: OVCAR-5 ovarian
[13] = system: BT-549 breast
[14] = system: NCI-H460 lung
[15] = system: U251 CNS
[16] = system: SF-268 CNS
[17] = system: UACC-62 melanoma
[18] = system: IGROV1 ovarian
[19] = system: EKVX NSCLC
[20] = system: HT29 colon
[21] = system: HS 578T breast
[22] = system: MDA-MB-435
[23] = system: HOP-62 NSCLC
[24] = system: HCC-2998 colon
[25] = system: CAKI-1 renal
[26] = system: SK-OV-3 ovarian
[27] = system: MDA-N
[28] = system: SNB-19 CNS
[29] = system: RXF 393 renal
[30] = system: 786-0 renal
[31] = system: SK-MEL-28 melanoma
[32] = system: A549 NSCLC
[33] = system: PC-3 prostate
[34] = system: NCI-H522 lung
[35] = system: MDA-MB-231 breast
[36] = system: KM12 colon
[37] = system: OVCAR-8 ovarian
[38] = system: UACC-257 melanoma
[39] = system: T-47D breast
[40] = system: SK-MEL-5 melanoma
[41] = system: ACHN renal
[42] = system: DU-145 prostate
[43] = system: HCT-15 colon
[44] = system: SF-295 CNS
[45] = system: NCI-H226 lung
[46] = system: UO-31 renal
[47] = system: OVCAR-4 ovarian
[48] = system: A498 renal
[49] = system: RPMI-8226 leukemia
[50] = system: SR leukemia
[51] = system: MOLT-4 leukemia
[52] = system: SNB-75 CNS
[53] = system: MCF7 breast
[54] = system: OVCAR-3 ovarian
[55] = system: LOX IMVI melanoma
[56] = system: HOP-92 NSCLC
[57] = system: COLO 205 colon
[58] = system: SW-620 colon
[59] = system: K-562 leukemia

C=C1c2nc3ccccc3n2C=C(c2ccccc2)N1c1ccc(Cl)cc1
TGI [1]: > 100 µM
TGI [2]: 51.2 µM
TGI [3]: > 100 µM
TGI [4]: > 100 µM
TGI [5]: > 100 µM
TGI [6]: > 77.7 µM
TGI [7]: 20.9 µM
TGI [8]: 57.2 µM
TGI [9]: > 100 µM
TGI [10]: 79.7 µM
TGI [11]: > 75.2 µM
TGI [12]: > 100 µM
TGI [13]: > 66.2 µM
TGI [14]: > 49.4 µM
TGI [15]: > 70.3 µM
TGI [16]: > 100 µM
TGI [17]: > 100 µM
TGI [18]: > 89.5 µM
TGI [19]: 49.2 µM
TGI [20]: > 100 µM
TGI [21]: > 59.1 µM
TGI [22]: > 100 µM
TGI [23]: > 63.3 µM
TGI [24]: > 100 µM
TGI [25]: 21.6 µM
TGI [26]: > 86.7 µM
TGI [27]: > 100 µM
TGI [28]: > 100 µM
TGI [29]: > 67.6 µM
TGI [30]: 20.6 µM
TGI [31]: > 100 µM
TGI [32]: > 100 µM
TGI [33]: > 100 µM
TGI [34]: > 100 µM
TGI [35]: 51.8 µM
TGI [36]: 66.3 µM
TGI [37]: > 93.1 µM
TGI [38]: > 100 µM
TGI [39]: > 100 µM
TGI [40]: > 100 µM
TGI [41]: 38.4 µM
TGI [42]: > 100 µM
TGI [43]: > 90.1 µM
TGI [44]: 49.2 µM
TGI [45]: > 87.1 µM
TGI [46]: > 100 µM
TGI [47]: 61.6 µM
TGI [48]: > 77 µM
TGI [49]: > 85 µM
TGI [50]: > 100 µM
TGI [51]: > 100 µM
TGI [52]: 19 µM
TGI [53]: > 100 µM
TGI [54]: 59.5 µM
TGI [55]: > 100 µM
TGI [56]: 61.2 µM
TGI [57]: > 100 µM
TGI [58]: > 100 µM
TGI [59]: > 100 µM

Cc1ccc(N(C=O)c2c([N+](=O)[O-])cc([N+](=O)[O-])c3c2=[N+]([O-])CN=3)cc1
TGI [1]: > 100 µM
TGI [2]: 43.1 µM
TGI [4]: 61.3 µM
TGI [5]: 42.2 µM
TGI [6]: 92.2 µM
TGI [7]: > 100 µM
TGI [8]: 78.7 µM
TGI [9]: 67.4 µM
TGI [10]: 68.1 µM
TGI [11]: 44.8 µM
TGI [12]: > 100 µM
TGI [13]: 69 µM
TGI [14]: > 100 µM
TGI [15]: 79.9 µM
TGI [16]: > 100 µM
TGI [17]: 29.8 µM
TGI [18]: > 100 µM
TGI [19]: > 100 µM
TGI [20]: > 100 µM
TGI [21]: > 100 µM
TGI [22]: > 100 µM
TGI [23]: > 100 µM
TGI [24]: 43.3 µM
TGI [25]: > 100 µM
TGI [26]: > 100 µM
TGI [27]: > 100 µM
TGI [28]: > 100 µM
TGI [29]: 42 µM
TGI [30]: 67.6 µM
TGI [31]: > 100 µM
TGI [32]: > 100 µM
TGI [33]: 47.3 µM
TGI [34]: 48.2 µM
TGI [35]: 54.5 µM
TGI [36]: > 100 µM
TGI [37]: > 100 µM
TGI [38]: 58 µM
TGI [39]: 39.7 µM
TGI [40]: 30.1 µM
TGI [41]: 64 µM
TGI [42]: 72.9 µM
TGI [43]: 34.8 µM
TGI [44]: > 100 µM
TGI [45]: > 100 µM
TGI [46]: > 100 µM
TGI [47]: > 100 µM
TGI [48]: > 100 µM
TGI [49]: 69.2 µM
TGI [50]: > 100 µM
TGI [51]: 80.4 µM
TGI [52]: 95.2 µM
TGI [53]: 57.7 µM
TGI [54]: 73.6 µM
TGI [55]: 90.3 µM
TGI [56]: 60.1 µM
TGI [57]: 68.1 µM
TGI [58]: > 100 µM
TGI [59]: 82.7 µM

[N-]=[N+]=NC1C(O)C(CO)OC1n1ccc(N)nc1=O (stereo not given)
TGI [1]: 615 µM
TGI [2]: > 625 µM
TGI [4]: 25.3 µM
TGI [5]: > 585 µM
TGI [6]: > 625 µM
TGI [7]: 455 µM
TGI [8]: > 625 µM
TGI [9]: > 625 µM
TGI [10]: > 625 µM
TGI [11]: 186 µM
TGI [12]: > 625 µM
TGI [13]: > 625 µM
TGI [14]: > 625 µM
TGI [15]: > 625 µM
TGI [16]: > 625 µM
TGI [17]: 350 µM
TGI [18]: > 625 µM
TGI [19]: > 625 µM
TGI [20]: > 625 µM
TGI [21]: > 625 µM
TGI [22]: > 625 µM
TGI [23]: > 625 µM
TGI [24]: > 581 µM
TGI [25]: > 625 µM
TGI [26]: > 625 µM
TGI [27]: > 625 µM
TGI [28]: > 625 µM
TGI [29]: > 602 µM
TGI [30]: > 625 µM
TGI [31]: > 625 µM
TGI [32]: > 625 µM
TGI [33]: > 625 µM
TGI [34]: > 625 µM
TGI [35]: > 564 µM
TGI [36]: > 625 µM
TGI [37]: > 625 µM
TGI [38]: > 625 µM
TGI [39]: > 189 µM
TGI [40]: > 625 µM
TGI [41]: > 625 µM
TGI [42]: > 625 µM
TGI [43]: > 625 µM
TGI [44]: > 625 µM
TGI [45]: > 625 µM
TGI [46]: 616 µM
TGI [47]: > 625 µM
TGI [48]: > 625 µM
TGI [49]: > 625 µM
TGI [50]: 296 µM
TGI [51]: > 174 µM
TGI [52]: > 625 µM
TGI [53]: > 625 µM
TGI [54]: > 595 µM
TGI [55]: > 625 µM
TGI [56]: > 625 µM
TGI [57]: > 568 µM
TGI [58]: > 625 µM
TGI [59]: > 625 µM
